Laboratory results: patent US20120225119A1, “THERAPEUTIC COMBINATION FOR PAINFUL MEDICAL CONDITIONS” (UCB Pharma GmbH, priority 2005, published 2012)
“Also recorded” adds a separate entry of the source.

Legend:
[1] = test system: TNF-induced reduction of grip strength; test: Biceps muscle grip strength after TNF-induced muscle pain; type: in vivo, rat
Protocol: (§1) Adult male Sprague Dawley rats with a body weight of 250 g to 300 g were used (supplier: Charles River, Sulzfeld, Germany). Animals were group-housed (3 animals per cage) and maintained in a room with controlled temperature (21-22° C.) and a reversed light-dark cycle (12 h/12 h) with food and water available ad libitum. All experiments were approved by the Bavarian State animal experimentation committee and carried out in accordance with its regulations.
(§2) Recombinant rat tumor necrosis factor alpha (herein referred to as TNF) was obtained from R&D Systems, Minneapolis, Minn., U.S.A. TNF was diluted in 0.9% NaCl and used in a concentration of 1 μg in 50 μl. Injections were performed in short halothane narcosis with a 30 g needle bilaterally into the gastrocnemius or into the biceps brachii muscle. All rats were used to the behavioral tests before injections and baseline values were recorded over three test days.
Grip strength of the forelimbs was tested with a digital grip force meter (DFIS series, Chatillon, Greensboro, N.C., U.S.A.). The rat was positioned to grab the grid with the forelimbs and was gently pulled so that the grip strength could be recorded. Means of three trials were calculated. The effect of the TNF treatment was calculated for each animal separately and only animals with a significant TNF effect were included for further analysis.
Rats were injected with TNF into the biceps brachii muscle at 8 am. Six hours later, grip strength of the forelimbs was tested with a digital grip force meter. Test drug was administered, and grip strength was again tested after 30 to 60 minutes.
(§3) The rats, initially 10 per group, were treated with either 3, 10 or 30 mg/kg lacosamide, 2 mg/kg metamizol, 30 or 100 mg/kg pregabalin, 100 mg/kg gabapentin, or the NaCl vehicle, i.p. (intraperitoneally). Volume of i.p. injections was 0.5 ml. A pilot study was performed to confirm that i.m. (intramuscular) injection of 1 μg TNF into the gastrocnemius muscle was sufficient to induce pressure hyperalgesia.
(§4) Data are shown in graphs displaying means and standard errors of the means (SEM). Pre- and post-treatment data were compared using ANOVA (analysis of variance) and a Tukey post hoc test. Means of treatment groups were compared using a one-way ANOVA and Dunnett's post hoc test. Maximal possible effects (MPE) were calculated for all types of treatment.

[2] = test system: muscle pressure hyperalgesia induced by TNF; test: Withdrawal threshold to muscle pressure (Randall-Selitto) after TNF injection into gastrocnemius muscle; type: in vivo, rat; conditions: for full reversal of the muscle hyperalgesia: pregabalin 30 and 100 mg/kg
Protocol: as §1, §2
Mechanical withdrawal thresholds to muscle pressure were measured with an analgesimeter (Ugo Basile, Comerio, Italy). The rat was allowed to crawl into a sock which helps the rat to relax. The hind limbs were positioned such that an increasing pressure could be applied onto the gastrocnemius muscle (maximum 250 g). The pressure needed to elicit withdrawal was recorded. Means of 3 trials for each hind limb were calculated (interstimulus interval of >30 sec). Only animals with a significant TNF effect were included for further analysis.
Rats were injected with TNF into the gastrocnemius muscle at 2 pm. Eighteen hours later, rats were tested for pressure hyperalgesia pre- and post-administration of the test drug. Rats were tested for pressure hyperalgesia 30 to 60 minutes after drug administration.
as §3, §4

[3] = test system: formalin-induced flinching and licking of the affected paw; test: Rat formalin paw test (late phase); type: in vivo; conditions: for effect on time spent licking: lacosamide 10 mg/kg i.p.
Protocol: Rats were given an intraplantar injection of 5% formalin (50 μl) into the posterior left paw. This treatment induces a recognizable flinching and licking response of the affected paw in control animals. The number of flinches was counted for 15 minutes, beginning 20 minutes after injection of formalin. The time spent licking the affected paw was also recorded.
Male Rj: Wistar (Han) rats, 10 per group, weighing 100-130 g at the beginning of the experiments were studied per group. The test was performed blind. […]
Lacosamide (10 and 20 mg/kg), memantine (4 and 8 mg/kg), combinations of lacosamide (10 and 20 mg/kg) with memantine (4 and 8 mg/kg), and vehicle were administered i.p. 10 minutes before injection of formalin.
Lacosamide (10 and 20 mg/kg), naproxen (8 and 16 mg/kg), combinations of lacosamide (10 and 20 mg/kg) with […] (8 and 16 mg/kg), and vehicle were administered i.p. 10 minutes before injection of formalin. Morphine (8 mg/kg) was included as a comparative treatment.

[4] = test system: monosodium iodoacetate-induced tactile allodynia; test: Tactile allodynia (von Frey filaments) in iodoacetate rat model of osteoarthritis; type: in vivo; conditions: day 3 and day 7
[5] = test system: monosodium iodoacetate-induced mechanical hyperalgesia; test: Mechanical hyperalgesia (Randall-Selitto paw pressure) in iodoacetate rat model of osteoarthritis; type: in vivo; conditions: for paw pressure withdrawal threshold compared to iodoacetate/vehicle treated animals: day 3
[6] = pregabalin 30 and 100 mg/kg i.p.
[7] = lacosamide 10 and 30 mg/kg i.p.

## CC(C)C[C@H](CN)CC(=O)O [pregabalin]
[1]; 100 mg/kg i.p.
  MPE (maximal possible effect) on biceps muscle grip strength, FIG. 4: significantly different from vehicle
  reversal of TNF-induced reduction of grip strength: significant reversal; also recorded: improved grip strength
[2]; [6]
  MPE (maximal possible effect) on muscle pressure hyperalgesia, FIG. 2: significantly different from vehicle
  reversal of muscular mechanical hyperalgesia (withdrawal threshold to muscle pressure): significant reversal
[2]; gabapentin 100 mg/kg i.p.
  full reversal of the muscle hyperalgesia: Neither pregabalin nor gabapentin led to a full reversal

## CC12CC3CC(C)(C1)CC(N)(C3)C2 [Memantine]
[3]; Example 6, memantine 4 and 8 mg/kg i.p.
  effect on number of flinches as compared with vehicle controls: did not clearly affect

## Cc1c(N(C)CS(=O)(=O)[O-])c(=O)n(-c2ccccc2)n1C.[Na+] [metamizol]
[1]; metamizol 2 mg/kg i.p.
  MPE (maximal possible effect) on biceps muscle grip strength, FIG. 4: significantly different from vehicle
  reversal of TNF-induced reduction of grip strength: significant reversal
[2]; metamizol 2 mg/kg i.p.
  MPE (maximal possible effect) on muscle pressure hyperalgesia, FIG. 2: significantly different from vehicle
  reversal of muscular mechanical hyperalgesia (withdrawal threshold to muscle pressure): complete reversal

## COC[C@@H](NC(C)=O)C(=O)NCc1ccccc1 [Lacosamide, (R)-2-acetamido-N-benzyl-3-methoxypropionamide]
[4]; lacosamide 30 mg/kg p.o.
  tactile allodynia of iodoacetate-treated rats: improved
[1]; lacosamide 10 mg/kg i.p.
  grip strength test indicative of mechanical allodynia: reversed the effect of TNF
[1]; [7]
  MPE (maximal possible effect) on biceps muscle grip strength, FIG. 4: significantly different from vehicle
  reversal of TNF-induced reduction of grip strength: significant reversal
[3]; Example 6
  effect on time spent licking: no clear effects
[3]; Example 7
  effect on time spent licking: no clear effects
[3]; Example 7, lacosamide 10 and 20 mg/kg i.p.
  effect on number of flinches as compared with vehicle controls: did not clearly affect
[5]; lacosamide 3 mg/kg p.o.
  paw pressure withdrawal threshold compared to iodoacetate/vehicle treated animals: increase in paw pressure withdrawal threshold
[5]; lacosamide 10 mg/kg p.o., day 14
  mechanical hyperalgesia: did not show a statistically significant effect
[5]; lacosamide at all doses tested (3, 10 and 30 mg/kg p.o.), day 7
  mechanical hyperalgesia: reduced mechanical hyperalgesia
[5]; lacosamide p.o.
  mechanical hyperalgesia during the post-inflammatory period: inhibited mechanical hyperalgesia
[2]; lacosamide 30 mg/kg i.p., 30 to 60 minutes after drug
  reversal of muscular mechanical hyperalgesia (withdrawal threshold to muscle pressure): complete reversal; also recorded: full reversal
[2]; lacosamide 3, 10 and 30 mg/kg i.p.
  muscle hyperalgesia induced by TNF injection in the paw pressure test: dose-dependently improved
[2]; [7]
  MPE (maximal possible effect) on muscle pressure hyperalgesia, FIG. 2: significantly different from vehicle

## O=C(O)Cc1ccccc1Nc1c(Cl)cccc1Cl [diclofenac]
[5]; diclofenac 30 mg/kg s.c.
  paw pressure withdrawal threshold compared to iodoacetate/vehicle treated animals: increase in paw pressure withdrawal threshold
[5]; diclofenac 30 mg/kg s.c., day 7
  mechanical hyperalgesia: reduced mechanical hyperalgesia

## NCC1(CC(=O)O)CCCCC1 [Gabapentin]
[1]; 100 mg/kg i.p.
  MPE (maximal possible effect) on biceps muscle grip strength, FIG. 4: significantly different from vehicle
  reversal of TNF-induced reduction of grip strength: significant reversal; also recorded: improved grip strength
[2]; gabapentin 100 mg/kg i.p.
  MPE (maximal possible effect) on muscle pressure hyperalgesia, FIG. 2: significantly different from vehicle
  reversal of muscular mechanical hyperalgesia (withdrawal threshold to muscle pressure): significant reversal
  full reversal of the muscle hyperalgesia: Neither pregabalin nor gabapentin led to a full reversal

## COc1ccc2cc([C@H](C)C(=O)O)ccc2c1 [Naproxen]
[3]; Example 7, naproxen 8 and 16 mg/kg i.p.
  effect on number of flinches or time spent licking as compared with vehicle controls: did not clearly affect

## CN1CC[C@]23c4c5ccc(O)c4O[C@H]2[C@@H](O)C=C[C@H]3[C@H]1C5 [Morphine]
[4]; morphine 3 mg/kg s.c.
  tactile allodynia of iodoacetate-treated rats: improved
[3]; Example 4, morphine 2 and 4 mg/kg i.p., effects did not reach statistical significance
  effect on number of flinches and time spent licking as compared with vehicle controls: dose-dependently decreased
[3]; Example 7, morphine 8 mg/kg i.p.
  effect on flinching and time spent licking as compared with vehicle controls: eliminated flinching and the time spent licking
[5]; morphine 3 mg/kg s.c.
  paw pressure withdrawal threshold compared to iodoacetate/vehicle treated animals: increase in paw pressure withdrawal threshold
[5]; morphine 3 mg/kg s.c., day 7
  mechanical hyperalgesia: reduced mechanical hyperalgesia
